PubChem BioAssay AID328 (DTP/NCI, 2004)
Several values for one entry are separate records, joined by “and”; a condition that tells them apart may be missing. Identical values can stand only once. Inconclusive results and toxic doses are left out.

Test system: BDF1 mice, P388 leukemia ip, median survival T/C
Assay: NCI In Vivo Anticancer Drug Screen. Data for tumor model P388 Leukemia (intraperitoneal) in B6D2F1 (BDF1) mice
Conditions: endpoint: median survival time, higher = longer survival
Outline: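 Survival ratio, drug arm over vehicle arm, in mice with a transplanted tumour.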

[1] = dose: 50.0 mg/kg/injection, schedule: Q01DX009 (ip), vehicle: saline with Tween-80
[2] = dose: 100.0 mg/kg/injection, schedule: Q01DX009 (ip), vehicle: saline with Tween-80
[3] = dose: 200.0 mg/kg/injection, schedule: Q01DX009 (ip), vehicle: saline with Tween-80
[4] = dose: 100.0 mg/kg/injection, schedule: Q04DX003 (ip), vehicle: saline with Tween-80
[5] = dose: 200.0 mg/kg/injection, schedule: Q04DX003 (ip), vehicle: saline with Tween-80
[6] = dose: 12.5 mg/kg/injection, schedule: Q01DX009 (ip), vehicle: Klucel (hydroxypropylcellulose) (HPC)
[7] = dose: 25.0 mg/kg/injection, schedule: Q01DX009 (ip), vehicle: Klucel (hydroxypropylcellulose) (HPC)
[8] = dose: 50.0 mg/kg/injection, schedule: Q01DX009 (ip), vehicle: Klucel (hydroxypropylcellulose) (HPC)
[9] = dose: 100.0 mg/kg/injection, schedule: Q01DX009 (ip), vehicle: Klucel (hydroxypropylcellulose) (HPC)
[10] = dose: 100.0 mg/kg/injection, schedule: Q04DX003 (ip), vehicle: saline
[11] = dose: 200.0 mg/kg/injection, schedule: Q04DX003 (ip), vehicle: saline
[12] = dose: 100.0 mg/kg/injection, schedule: Q01DX001 (ip), vehicle: saline with Tween-80

SMILES: Cc1cc[n+]2cc3c(ccc4ccccc43)c(C)c2c1
- T/C (dose: 0.7 mg/kg/injection, schedule: Q01DX010 (ip), vehicle: carboxymethylcellulose (CMC)): 110 % of control
- T/C (dose: 1.5 mg/kg/injection, schedule: Q01DX010 (ip), vehicle: carboxymethylcellulose (CMC)): 100 % of control
- T/C (dose: 3.0 mg/kg/injection, schedule: Q01DX010 (ip), vehicle: carboxymethylcellulose (CMC)): 110 % of control
- T/C (dose: 6.0 mg/kg/injection, schedule: Q01DX010 (ip), vehicle: carboxymethylcellulose (CMC)): 115 % of control
- T/C (dose: 12.5 mg/kg/injection, schedule: Q01DX010 (ip), vehicle: carboxymethylcellulose (CMC)): 110 % of control
- T/C (dose: 25.0 mg/kg/injection, schedule: Q01DX010 (ip), vehicle: carboxymethylcellulose (CMC)): 110 % of control

SMILES: COc1ccccc1C(=O)c1ccccc1Cc1cccc2ccccc12
- T/C [1]: 92 % of control
- T/C [2]: 92 % of control
- T/C [3]: 92 % of control
- T/C (dose: 400.0 mg/kg/injection, schedule: Q01DX009 (ip), vehicle: saline with Tween-80): 97 % of control

SMILES: CC(Br)C(=O)NC(CC(N)=O)C(=O)O (stereo not given)
- T/C (dose: 50.0 mg/kg/injection, schedule: Q04DX003 (ip), vehicle: saline with Tween-80): 100 % of control
- T/C [4]: 90 % of control
- T/C [5]: 100 % of control

SMILES: CC[NH-].CC[NH-].[Br][Pt+2][Br]
- T/C (dose: 20.0 mg/kg/injection, schedule: Q04DX003 (ip), vehicle: other): 100 % of control
- T/C (dose: 30.0 mg/kg/injection, schedule: Q04DX003 (ip), vehicle: other): 158 % of control
- T/C (dose: 44.0 mg/kg/injection, schedule: Q04DX003 (ip), vehicle: other): 154 % of control and 166 % of control
- T/C (dose: 66.0 mg/kg/injection, schedule: Q04DX003 (ip), vehicle: other): 159 % of control
- T/C (dose: 100.0 mg/kg/injection, schedule: Q04DX003 (ip), vehicle: other): 166 % of control and 168 % of control
- T/C (dose: 150.0 mg/kg/injection, schedule: Q04DX003 (ip), vehicle: other): 154 % of control
- T/C (dose: 200.0 mg/kg/injection, schedule: Q04DX003 (ip), vehicle: other): 162 % of control

SMILES: CN(C)N=Nc1ccccc1
- T/C (dose: 31.25 mg/kg/injection, schedule: Q01DX009 (ip), vehicle: Klucel (hydroxypropylcellulose) (HPC)): 103 % of control
- T/C (dose: 82.0 mg/kg/injection, schedule: Q04DX003 (ip), vehicle: Klucel (hydroxypropylcellulose) (HPC)): 110 % of control
- T/C (dose: 125.0 mg/kg/injection, schedule: Q04DX003 (ip), vehicle: saline): 90 % of control

SMILES: COc1cccc(S(=O)c2ccc([N+](=O)[O-])c3no[n+]([O-])c23)c1 (stereo not given)
- T/C (dose: 15.0 mg/kg/injection, schedule: Q01DX009 (ip), vehicle: saline with Tween-80): 112 % of control

SMILES: CN(C)N=Nc1ccccc1C(N)=O
- T/C (dose: 22.0 mg/kg/injection, schedule: Q01DX009 (ip), vehicle: saline with Tween-80): 111 % of control
- T/C (dose: 26.6 mg/kg/injection, schedule: Q01DX009 (ip), vehicle: saline with Tween-80): 104 % of control
- T/C (dose: 33.0 mg/kg/injection, schedule: Q01DX009 (ip), vehicle: saline with Tween-80): 100 % of control
- T/C (dose: 40.0 mg/kg/injection, schedule: Q01DX009 (ip), vehicle: saline with Tween-80): 91 % of control
- T/C [1]: 111 % of control
- T/C (dose: 60.0 mg/kg/injection, schedule: Q01DX009 (ip), vehicle: saline with Tween-80): 120 % of control
- T/C (dose: 75.0 mg/kg/injection, schedule: Q01DX009 (ip), vehicle: saline with Tween-80): 161 % of control

SMILES: C=C1CC(OC(=O)c2ccc([N+](=O)[O-])cc2)C1
- T/C [1]: 111 % of control
- T/C [2]: 111 % of control
- T/C [3]: 90 % of control

SMILES: C[n+]1ccc(Nc2ccc(NC(=O)c3ccc(C(=O)Nc4ccc(Nc5cc[n+](C)c(N)n5)cc4)cc3)cc2)nc1N
- T/C (dose: 6.3 mg/kg/injection, schedule: Q01DX007 (ip), vehicle: Klucel (hydroxypropylcellulose) (HPC)): 180 % of control
- T/C (dose: 6.3 mg/kg/injection, schedule: Q01DX009 (ip), vehicle: saline): 155 % of control
- T/C (dose: 9.6 mg/kg/injection, schedule: Q01DX007 (ip), vehicle: Klucel (hydroxypropylcellulose) (HPC)): 180 % of control
- T/C (dose: 9.6 mg/kg/injection, schedule: Q01DX009 (ip), vehicle: saline): 161 % of control
- T/C [6]: 190 % of control
- T/C (dose: 14.0 mg/kg/injection, schedule: Q01DX007 (ip), vehicle: Klucel (hydroxypropylcellulose) (HPC)): 175 % of control
- T/C (dose: 14.0 mg/kg/injection, schedule: Q01DX009 (ip), vehicle: saline): 150 % of control
- T/C [7]: 172 % of control
- T/C [8]: 204 % of control
- T/C [9]: 259 % of control
- T/C [10]: 172 % of control
- T/C [11]: 163 % of control

SMILES: CC(C)(C)S(=O)(=O)CC(=O)Nc1ccccc1
- T/C [12]: 96 % of control
- T/C (dose: 200.0 mg/kg/injection, schedule: Q01DX001 (ip), vehicle: saline with Tween-80): 101 % of control
- T/C (dose: 400.0 mg/kg/injection, schedule: Q01DX001 (ip), vehicle: saline with Tween-80): 96 % of control

SMILES: Cc1cccc2c(N3CCOCC3)c3c(nc12)CCCCC3
- T/C [4]: 105 % of control
- T/C [5]: 95 % of control
- T/C (dose: 400.0 mg/kg/injection, schedule: Q04DX003 (ip), vehicle: saline with Tween-80): 100 % of control

SMILES: Oc1c(-c2ccccc2)cc(-[n+]2c(-c3ccccc3)cc(-c3ccc(-c4ccccc4)cc3)cc2-c2ccccc2)cc1-c1ccccc1
- T/C (dose: 25.0 mg/kg/injection, schedule: Q01DX001 (ip), vehicle: saline with Tween-80): 107 % of control
- T/C (dose: 50.0 mg/kg/injection, schedule: Q01DX001 (ip), vehicle: saline with Tween-80): 98 % of control
- T/C [12]: 102 % of control

SMILES: CCOc1ccc(NC(=S)N(C)C)cc1
- T/C [1]: 90 % of control
- T/C [2]: 86 % of control

SMILES: CC(=O)C(=Cc1c[nH]c2ccccc12)C(C)=O
- T/C [6]: 92 % of control
- T/C [7]: 90 % of control
- T/C [9]: 110 % of control
- T/C (dose: 100.0 mg/kg/injection, schedule: Q04DX003 (ip), vehicle: water): 105 % of control
- T/C (dose: 200.0 mg/kg/injection, schedule: Q04DX003 (ip), vehicle: water): 120 % of control

SMILES: O
- T/C (dose: 100.0 mg/kg/injection, schedule: Q01DX001 (ip), vehicle: saline): 95 % of control
- T/C [10]: 105 % of control
- T/C (dose: 200.0 mg/kg/injection, schedule: Q01DX001 (ip), vehicle: saline): 90 % of control
- T/C [11]: 95 % of control
- T/C (dose: 400.0 mg/kg/injection, schedule: Q01DX001 (ip), vehicle: saline): 90 % of control
- T/C (dose: 400.0 mg/kg/injection, schedule: Q04DX003 (ip), vehicle: saline): 105 % of control

SMILES: Cc1ccc(S(=O)(=O)N(CCC(=N)N)C(C)C)cc1
- T/C (dose: 12.5 mg/kg/injection, schedule: Q01DX009 (ip), vehicle: saline): 95 % of control
- T/C (dose: 25.0 mg/kg/injection, schedule: Q01DX009 (ip), vehicle: saline): 90 % of control
- T/C (dose: 25.0 mg/kg/injection, schedule: Q04DX003 (ip), vehicle: saline): 104 % of control
- T/C (dose: 50.0 mg/kg/injection, schedule: Q01DX009 (ip), vehicle: saline): 105 % of control
- T/C (dose: 50.0 mg/kg/injection, schedule: Q04DX003 (ip), vehicle: saline): 100 % of control

SMILES: CN(C)CCNc1ccc([N+](=O)[O-])c2sc3ccccc3c(=O)c12
- T/C (dose: 7.5 mg/kg/injection, schedule: Q01DX009 (ip), vehicle: Klucel (hydroxypropylcellulose) (HPC)): 107 % of control
- T/C (dose: 11.0 mg/kg/injection, schedule: Q01DX009 (ip), vehicle: Klucel (hydroxypropylcellulose) (HPC)): 115 % of control
- T/C (dose: 12.5 mg/kg/injection, schedule: Q04DX003 (ip), vehicle: Klucel (hydroxypropylcellulose) (HPC)): 108 % of control
- T/C (dose: 17.0 mg/kg/injection, schedule: Q01DX009 (ip), vehicle: Klucel (hydroxypropylcellulose) (HPC)): 108 % of control
- T/C [7]: 157 % of control and 166 % of control
- T/C (dose: 25.0 mg/kg/injection, schedule: Q04DX003 (ip), vehicle: Klucel (hydroxypropylcellulose) (HPC)): 116 % of control
- T/C (dose: 37.0 mg/kg/injection, schedule: Q01DX009 (ip), vehicle: Klucel (hydroxypropylcellulose) (HPC)): 92 % of control and 108 % of control
- T/C [8]: 91 % of control
- T/C (dose: 50.0 mg/kg/injection, schedule: Q04DX003 (ip), vehicle: Klucel (hydroxypropylcellulose) (HPC)): 162 % of control

SMILES: CC(=O)/C(N=Nc1ccccc1)=C(\C)O
- T/C (dose: 25.0 mg/kg/injection, schedule: Q01DX009 (sc), vehicle: olive oil, sesame oil, peanut oil): 100 % of control
- T/C (dose: 50.0 mg/kg/injection, schedule: Q01DX009 (sc), vehicle: olive oil, sesame oil, peanut oil): 96 % of control
- T/C (dose: 100.0 mg/kg/injection, schedule: Q01DX009 (sc), vehicle: olive oil, sesame oil, peanut oil): 112 % of control
